From patent publication US10130636B2, “High dosage strength tablets of rucaparib” (Clovis Oncology, Inc., priority 2014, dated 2018)
Read-outs that look alike come from different tables or passages of the source.

Legend:
[1] = as stated in U.S. Pat. No. 8,754,072; compared to other salt forms; cited from earlier work
[2] = CTC profiles (compressibility, tabletability, compactability) of rucaparib salt intra granular formulations; format: physicochemical; settings: for formation of compacts: pure API without excipients, maleate also at 90% loading, 100 mg compacts
Excerpt: The most relevant and broadly accepted approach to assessing compression evaluation of different formulations (and different API salts) is by measuring the interrelationships of compression stress, solid fraction, and tensile strength using a compaction simulator. These parameters are related to each other in a set of relationships referred to as compressibility, tabletability, and compactability profiles (i.e., CTC Profiles) (Tye, Sun, Amidon, J. Pharm. Sci, 94: 465-472, (2005)). Focus was on the intra granular blend rather than the final blend because nearly all of the lead formulation is processed through dry granulation; only a small portion is extra granular. Additionally, the extra granular lubrication step at small scale is not representative of downstream pilot or commercial processing and risks masking intrinsic compressibility properties. For the provided lot of each salt form, formulations were evaluated at 100%, 90%, 75%, and 60% of the final tablet formulation (this correlates to 100%, 90.68%, 75.57%, and 60.45% intra granular components). CTC profiles for each API and formulation were determined by compressing (Texture Technologies model TA.XT Plus Texture Analyzer), in triplicate, 1⁄4'' round flat-faced 100 mg compacts using a linear sawtooth strain profile at 5 mm/sec velocity to four pre-programmed peak forces encompassing roller compaction and tableting compression stress ranges (e.g., up to 240 MPa). The compacts were then evaluated for physical dimensions, weight, and hardness. […] The maximum acceptable compression stress considered within normal ranges of a commercial rotary tablet press is approximately 250 MPa. Similarly, a typical target tensile strength for tablets is 2 MPa; such tablets generally have low friability, and are suitable for downstream handling and film coating. Thus, if a given formulation can be compressed to a tensile strength of 2 MPa at a compression stress of less than 250 MPa, it is considered to have acceptable compressibility.

[3] = Hygroscopicity of rucaparib salts; format: physicochemical; settings: compared to other salts of rucaparib
[4] = Drug Load 60%, Compression Stress 47.9 MPa
[5] = Drug Load 60%, Compression Stress 80.3-80.4 MPa
[6] = Drug Load 60%, Compression Stress 176.0-177.0 MPa
[7] = Drug Load 60%, Compression Stress 239.5-240.4 MPa
[8] = Drug Load 75%, Compression Stress 48.3-48.5 MPa
[9] = Drug Load 75%, Compression Stress 80.5-80.8 MPa
[10] = Drug Load 75%, Compression Stress 176.8-177.8 MPa
[11] = Drug Load 75%, Compression Stress 240.1-240.7 MPa

In the case of Rucaparib Maleate, the hygroscopicity [1] is listed as “less hygroscopic”, the “tabletability, fold lower than the camsylate salt” value ([2]; 60 and 75% API loading) is listed as 2-2.5 × and the “Tensile Strength” value [2, 4] is listed as 0.3 MPa. The “Tensile Strength” value [2, 5] was 0.6 MPa, the “Tensile Strength” value [2, 6] was 1.2 MPa and the “Tensile Strength” value [2, 7] was 1.4 MPa. For the same molecule, the “Tensile Strength” value [2, 8] was 0.2 MPa, the “Tensile Strength” value [2, 9] was 0.4 MPa and the “Tensile Strength” value [2, 10] was 0.8 MPa. The “Tensile Strength” value [2, 11] was 0.8 MPa, the “drug loading needed to obtain tablets with sufficient strength” value ([2]; estimated, target >70%) was < 50% and the formation of compacts [2] was “not able to be formed”.
In the case of `CNCc1ccc(-c2[nH]c3cc(F)cc4c3c2CCNC4=O)cc1` [Camsylate, Rucaparib Camsylate], the hygroscopicity [1] is given as “less hygroscopic”, the hygroscopicity [3] is given as “low hygroscopicity” and the “Tensile Strength” value [2, 4] is given as 0.6 MPa. The “Tensile Strength” value [2, 5] was 1.3 MPa, the “Tensile Strength” value [2, 6] was 2.6 MPa and the “Tensile Strength” value [2, 7] was 3.1 MPa. For the same molecule, the “Tensile Strength” value [2, 8] was 0.6 MPa, the “Tensile Strength” value [2, 9] was 1.1 MPa and the “Tensile Strength” value [2, 10] was 2.3 MPa. For the same molecule, the “Tensile Strength” value [2, 11] was 2.8 MPa and the formation of compacts [2] was “formed good compacts”.
